Laboratory results from PMC10855526 (2024).

Experiments:
[1] = tested on: A20:T20 duplex DNA (dA20:dT20) (DNA, duplex) AAAAAAAAAAAAAAAAAAAA/TTTTTTTTTTTTTTTTTTTT; experiment: isothermal titration calorimetry; details: 20 mM NaCl (30 mM Na+ in Table 1); 10 mM Na phosphate pH 7.5; 25 °C; 10 µM DNA; N constrained to 4; binding site size 5 bp
[2] = tested on: A20:T20 duplex DNA (dA20:dT20) (DNA, duplex) AAAAAAAAAAAAAAAAAAAA/TTTTTTTTTTTTTTTTTTTT; experiment: UV thermal melting, ΔTm binding isotherm fit; details: 20 mM NaCl; 10 mM HEPES pH 7.5; 4 µM duplex; chloroquine diphosphate; from ΔTm vs concentration
[3] = tested on: A20:T20 duplex DNA (dA20:dT20) (DNA, duplex) AAAAAAAAAAAAAAAAAAAA/TTTTTTTTTTTTTTTTTTTT; experiment: UV thermal melting at 260 nm; details: 20 mM NaCl; 10 mM HEPES pH 7.5; 200 µM chloroquine; 4 µM duplex; fitted saturating ΔTm 16 ± 2 °C

CCN(CC)CCCC(C)Nc1ccnc2cc(Cl)ccc12 (stereo not drawn)
KD [1]: 360 ± 20 µM | KD [2]: 90 ± 10 µM | Tm increase [3]: ~ 10 °C
